Laboratory results from patent US7265130B2, “NPY Y5 antagonist” (Shionogi & Co., Ltd., priority 1999, dated 2007).

Experiments:
human NPY Y5 receptor [1] = target: T1, human NPY Y5 receptor (Homo sapiens, UniProt Q15761); test: Affinity for NPY Y5 receptor ([125I] peptide YY binding, CHO cell membranes); conditions: inhibition of specific [125I] peptide YY binding, membranes of CHO cells expressing NPY Y5 receptor
T1 construct: expressed in transfected cells
T1 sequence (Q15761 1-445): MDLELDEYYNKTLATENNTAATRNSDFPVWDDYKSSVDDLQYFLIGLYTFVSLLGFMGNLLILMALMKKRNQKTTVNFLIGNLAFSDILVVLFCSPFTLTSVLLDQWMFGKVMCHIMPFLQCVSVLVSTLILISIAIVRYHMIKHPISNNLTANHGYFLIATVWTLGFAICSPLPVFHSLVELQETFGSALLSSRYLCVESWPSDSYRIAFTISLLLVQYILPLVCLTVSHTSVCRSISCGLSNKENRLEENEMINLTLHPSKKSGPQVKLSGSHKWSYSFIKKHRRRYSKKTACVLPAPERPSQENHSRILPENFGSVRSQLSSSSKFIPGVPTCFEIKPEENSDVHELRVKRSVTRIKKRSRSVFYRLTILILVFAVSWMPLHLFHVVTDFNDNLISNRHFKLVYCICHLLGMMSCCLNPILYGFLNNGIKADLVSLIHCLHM
From the text: Experiment 1 Affinity for NPY Y5 Receptor
cDNA sequence encoding a human NPY Y5 receptor (WO096/16542) was cloned in the expression vector pME18S (Takebe et al. Mol. Cell. Biol. 8, 8957). The obtained expression vector was transfected into a host CHO cells by using a Lipofect AMINE reagent (Trademark, Gibco BRL Co., Ltd.) according to an instruction protocol to obtain the cells that stably express NPY Y5 receptor.
The membranes prepared from the above CHO cells expressing NPY Y5 receptor, the compound of the present invention and 30,000 cpm [^125I] peptide YY (60 pM of final concentration: Amersham) were incubated in the assay buffer (20 mM HEPES-Hanks buffer containing 0.1% bovine serum albumin, pH 7.4) at 25° C. for 2 hours, and then the mixture was filtered with a glassfilter GF/C treated with polyethyleneimine. After the glassfilter was washed with 50 mM Tris-HCl buffer (pH 7.4), the radioactivity on the filter was measured with a gamma counter. The non-specific binding was detected in the presence of 200 nM of peptide YY. The 50% inhibitory concentration of the test compound against the specific peptide YY binding (IC50 value) was calculated (Inui, A. et al. Endocrinology 131, 2090-2096 (1992)).

human NPY Y5 receptor [2] = target: T1, human NPY Y5 receptor; test: cAMP production inhibitory activity in CHO cells; assay type: cell-based; conditions: against 50 nM NPY inhibition of forskolin stimulated cAMP, CHO cells expressing human NPY Y5 receptor
Protocol: Experiment 2 cAMP production inhibitory activity in CHO cells
After CHO cells expressing human NPY Y5 receptor were incubated in the presence of 2.5 mM isobutylmethylxanthine (SIGMA) at 37° C. for 20 min., the compound of the present invention was added and incubated for 5 min. Then, 50 nM NPY and 10 μM forskolin (SIGMA) were added to the cells and incubated for 30 min. After the reaction was terminated by adding 1N HCl, the amount of cAMP in the supernatant was measured with EIA kit (Amersham LIFE SCIENCE).

| SMILES | IC50 (human NPY Y5 receptor [1]) [nM] | IC50 (human NPY Y5 receptor [2]) [nM] |
| --- | --- | --- |
| CCCCc1ccc(NC(=O)N2CCC(NS(=O)(=O)C(C)(C)C)CC2)cc1 [Compound I-120, 4-t-butylsulfonylaminopiperidine-1-carboxylic acid(4-butylphenyl)amide] | 1.4 | 4.8 |
| CCCCc1ccc(NC(=O)C23CCC(NS(=O)(=O)C(C)(C)C)(CC2)CC3)cc1 [Compound I-123] | 1.8 | 168 |
| CC(=O)c1ccc(NC(=O)C2CCC(NS(=O)(=O)C(C)(C)C)CC2)cc1 (centres unmarked) [Compound I-127] | 1.4 | 30.4 |
| CSc1ccc(NC(=O)C2CCC(NS(=O)(=O)C(C)(C)C)CC2)cc1 (centres unmarked) [Compound I-128] | 1.3 | 10.2 |
| CC(C)(C)S(=O)(=O)NC1CCC(C(=O)Nc2cccc3cc4ccccc4cc23)CC1 (centres unmarked) [Compound I-129] | 2.1 | 174 |
| CC(C)(C)S(=O)(=O)NC1CCC(C(=O)Nc2ccc(C(C#N)c3ccccc3)c(Cl)c2)CC1 (centres unmarked) [Compound I-130] | 1.1 | 42.5 |
| Cn1cc(Br)c(-c2cccc(NC(=O)C3CCC(NS(=O)(=O)C(C)(C)C)CC3)c2)n1 (centres unmarked) [Compound I-131] | 1.1 | 34.8 |
| COc1cc2c(cc1NC(=O)C1CCC(NS(=O)(=O)C(C)(C)C)CC1)oc1ccccc12 (centres unmarked) [Compound I-132] | 2.2 | 30.4 |
| CCC(C)COC(=O)/C=C/c1ccc(NC(=O)C2CCC(NS(=O)(=O)C(C)(C)C)CC2)cc1 (centres unmarked) [Compound I-133] | 0.9 | 21.1 |
| CC(C)(C)S(=O)(=O)NC1CCC(C(=O)Nc2ccc(-c3ccc(C#N)cc3)cc2)CC1 (centres unmarked) [Compound I-137] | 1.4 | 68.2 |
| Cc1ccc2cc(NC(=O)C3CCC(NS(=O)(=O)C(C)(C)C)CC3)ccc2n1 (centres unmarked) [Compound I-138] | 1 | 18.6 |
| COC(=O)c1scc(NC(=O)C2CCC(NS(=O)(=O)C(C)(C)C)CC2)c1C(=O)OC (centres unmarked) [Compound I-143] | 3.5 | 44 |
| CC(C)(C)S(=O)(=O)NC1CCC(C(=O)Nc2cccnc2Oc2ccc(F)cc2F)CC1 (centres unmarked) [Compound I-144] | 3.4 | 52 |
| CC(C)(C)S(=O)(=O)NC1CCC(C(=O)Nc2cc(-c3ccco3)[nH]n2)CC1 (centres unmarked) [Compound I-146] | 2.3 | 20 |
| COc1ccc(CCNC(=O)C2CCC(NS(=O)(=O)C(C)(C)C)CC2)cc1OC (centres unmarked) [Compound I-147] | 7.1 | 63 |
| CSc1sc(C(=O)NNC(=O)C2CCC(NS(=O)(=O)C(C)(C)C)CC2)c2c1C(O)CCC2 (centres unmarked) [Compound I-153] | 1.7 | 29 |
| COCOc1cccc(NC(=O)C2CCC(NS(=O)(=O)C(C)(C)C)CC2)c1 (centres unmarked) [Compound I-162] | 1.7 | 32 |

| SMILES | IC50 (human NPY Y5 receptor [1]) [nM] | IC50 (human NPY Y5 receptor [2]) [nM] |
| --- | --- | --- |
| CC(C)(C)S(=O)(=O)NC1CCC(C(=O)Nc2cccc(O)c2)CC1 (centres unmarked) [Compound I-163] | 2.3 | 83 |
| CC(C)(C)S(=O)(=O)NC1CCC(C(=O)Nc2ccc(Oc3ccccc3)nc2)CC1 (centres unmarked) [Compound I-168] | 2.1 | 32 |
| CCCCOc1ccc(NC(=O)C2CCC(NS(=O)(=O)C(C)(C)C)CC2)c([N+](=O)[O-])c1 (centres unmarked) [Compound I-171] | 2.4 | 71 |
| CCCCOc1ccc(NC(=O)C2CCC(NS(=O)(=O)C(C)(C)C)CC2)c(N)c1 (centres unmarked) [Compound I-172] | 0.91 | 36 |
| CCCCOc1cccc(CONC(=O)C2CCC(NS(=O)(=O)C(C)(C)C)CC2)c1 (centres unmarked) [Compound I-191] | 1.1 | 11 |
| CCOc1ccc(NC(=O)C2CCC(NS(=O)(=O)C(C)(C)C)CC2)cc1OCC (centres unmarked) [Compound I-196] | 1.4 | 6.8 |
| CC(=O)c1cccc(NC(=O)C2CCC(NS(=O)(=O)C(C)(C)C)CC2)c1 (centres unmarked) [Compound I-197] | 6.7 | 38 |
| CC(C)(C)S(=O)(=O)NC1CCC(C(=O)Nc2ccc3c(c2)CCC3=NO)CC1 (centres unmarked) [Compound I-198] | 7.2 | 33 |
| CC(C)(C)S(=O)(=O)NC1CCC(C(=O)Nc2cccc(N3CCOCC3)c2)CC1 (centres unmarked) [Compound I-199] | 4.8 | 31 |
| CC(C)(C)S(=O)(=O)NC1CCC(C(=O)Nc2ccc3c(c2)OCCO3)CC1 (centres unmarked) [Compound I-202] | 6.7 | 67 |
| CC(C)(C)S(=O)(=O)NC1CCC(C(=O)Nc2ccc(Cc3ccncc3)cc2)CC1 (centres unmarked) [Compound I-206] | 5.9 | 54 |
| CC(C)(C)S(=O)(=O)NC1CCC(C(=O)Nc2ccc3ncsc3c2)CC1 (centres unmarked) [Compound I-207] | 4.6 | 23 |
| CC(C)(C)S(=O)(=O)NC1CCC(C(=O)Nc2ccc3sccc3c2)CC1 (centres unmarked) [Compound I-210] | 1.1 | 13 |
| C[C@@H]1CN(c2cccc(NC(=O)C3CCC(NS(=O)(=O)C(C)(C)C)CC3)c2)C[C@H](C)O1 (some centres unmarked) [Ia-4] | 1.4 | 15 |
| Cc1ccc(NC(=O)C2CCC(NS(=O)(=O)C(C)(C)C)CC2)cc1 (centres unmarked) [Ia-8] | 2.9 | 34 |
| CCc1ccc(NC(=O)C2CCC(NS(=O)(=O)C(C)(C)C)CC2)cc1 (centres unmarked) [Ia-9] | 0.94 | 11 |

Stronger by IC50 (human NPY Y5 receptor [1]), values ahead:

| IC50 (human NPY Y5 receptor [1]) [nM] | IC50 (human NPY Y5 receptor [2]) [nM] | SMILES |
| --- | --- | --- |
| 0.6 | 13.2 | CC(C)(C)S(=O)(=O)NC1CCC(C(=O)Nc2cccc(OC(F)(F)C(F)F)c2)CC1 (centres unmarked) [Compound I-126] |
| 0.5 | 10 | CC(C)(C)S(=O)(=O)NC1CCC(C(=O)Nc2cccc(Oc3ccccc3)c2)CC1 (centres unmarked) [Compound I-134] |
| 0.7 | 22 | CC(C)(C)S(=O)(=O)NC1CCC(C(=O)Nc2ccc3c(c2)C(=O)c2ccccc2-3)CC1 (centres unmarked) [Compound I-135] |
| 0.41 | 7.6 | CC(C)(C)S(=O)(=O)NC1CCC(C(=O)Nc2cnc3ccccc3c2)CC1 (centres unmarked) [Compound I-139] |
| 0.48 | 8.9 | CC(C)(C)S(=O)(=O)NC1CCC(C(=O)Nc2ccc3ncccc3c2)CC1 (centres unmarked) [Compound I-140] |
| 0.42 | 7.4 | COc1ccc(NC(=O)C2CCC(NS(=O)(=O)C(C)(C)C)CC2)c(Sc2ccccc2)n1 (centres unmarked) [Compound I-141] |
| 0.49 | 28 | CC(C)(C)S(=O)(=O)NC1CCC(C(=O)Nc2nc(-c3cccc4ccccc34)cs2)CC1 (centres unmarked) [Compound I-142] |
| 0.83 | 15 | CCN(CCNC(=O)C1CCC(NS(=O)(=O)C(C)(C)C)CC1)c1ccccc1 (centres unmarked) [Compound I-149] |
| 0.17 | 5.2 | CC(C)(C)S(=O)(=O)NC1CCC(C(=O)NCCSCc2c(Cl)cccc2Cl)CC1 (centres unmarked) [Compound I-150] |
| 0.17 | 2.6 | CC(C)(C)S(=O)(=O)NC1CCC(C(=O)NCCSCc2c(F)cccc2Cl)CC1 (centres unmarked) [Compound I-151] |
| 0.81 | 17 | CC(C)(C)S(=O)(=O)NC1CCC(C(=O)Nc2ccc3c(c2)CCC3=O)CC1 (centres unmarked) [Compound I-156] |
| 0.61 | 8.8 | CCOc1cccc(NC(=O)C2CCC(NS(=O)(=O)C(C)(C)C)CC2)c1 (centres unmarked) [Compound I-160] |
| 0.49 | 3.1 | CCCCOc1cccc(NC(=O)C2CCC(NS(=O)(=O)C(C)(C)C)CC2)c1 (centres unmarked) [Compound I-161] |
| 0.71 | 5.9 | CCCCOc1ccc(NC(=O)C2CCC(NS(=O)(=O)C(C)(C)C)CC2)cc1 (centres unmarked) [Compound I-164] |
| 0.44 | 47 | CCCCOc1ccc(NC(=O)C2CCC(NS(=O)(=O)C(C)(C)C)CC2)c(O)c1 (centres unmarked) [Compound I-165] |
| 0.37 | 9.7 | CCCCOc1ccc(NC(=O)C2CCC(NS(=O)(=O)C(C)(C)C)CC2)cc1O (centres unmarked) [Compound I-166] |
| 0.72 | 39 | CCCCOc1ccc(NC(=O)C2CCC(NS(=O)(=O)C(C)(C)C)CC2)cn1 (centres unmarked) [Compound I-167] |
| 0.58 | 13 | CCCCOc1cccc(CNC(=O)C2CCC(NS(=O)(=O)C(C)(C)C)CC2)c1 (centres unmarked) [Compound I-187] |
| 0.44 | 4 | CC(C)(C)S(=O)(=O)NC1CCC(C(=O)Nc2nnc(-c3ccc(F)cc3)s2)CC1 (centres unmarked) [Compound I-213] |
